Experimental data from ChEMBL document CHEMBL1137586, “Aminomethyl tetrahydronaphthalene ketopiperazine MCH-R1 antagonists--Increasing selectivity over hERG” (Bioorg Med Chem Lett, 2007).

Legend:
[1] = target: T1, Voltage-gated inwardly rectifying potassium channel KCNH2 (Homo sapiens, UniProt Q12809); test: Inhibition of binding to hERG
[2] = target: T2, Melanin-concentrating hormone receptor 1 (Homo sapiens, UniProt Q99705); test: Inhibition of binding to MCH-R1
Mus musculus = test: Percent weight loss in DIO mice 4 days after 20 mg/kg peroral dose; format: functional; conditions: route oral
[3] = Serum concentration in DIO mice 2 hr post 20mg/kg peroral dose; format: ADME, organism-based; conditions: mouse, po, read-out: Serum conc
[4] = target: T2, Melanin-concentrating hormone receptor 1; test: Functional antagonism of MCH-R1 expressed in HEK293 cells; format: cell-based
hERG (KCNH2) = hERG (KCNH2) (Homo sapiens, UniProt Q12809); test: Percent inhibition of binding to hERG at10uM
Chain of hERG (KCNH2) (Q12809 whole entry, the tested form may be a part): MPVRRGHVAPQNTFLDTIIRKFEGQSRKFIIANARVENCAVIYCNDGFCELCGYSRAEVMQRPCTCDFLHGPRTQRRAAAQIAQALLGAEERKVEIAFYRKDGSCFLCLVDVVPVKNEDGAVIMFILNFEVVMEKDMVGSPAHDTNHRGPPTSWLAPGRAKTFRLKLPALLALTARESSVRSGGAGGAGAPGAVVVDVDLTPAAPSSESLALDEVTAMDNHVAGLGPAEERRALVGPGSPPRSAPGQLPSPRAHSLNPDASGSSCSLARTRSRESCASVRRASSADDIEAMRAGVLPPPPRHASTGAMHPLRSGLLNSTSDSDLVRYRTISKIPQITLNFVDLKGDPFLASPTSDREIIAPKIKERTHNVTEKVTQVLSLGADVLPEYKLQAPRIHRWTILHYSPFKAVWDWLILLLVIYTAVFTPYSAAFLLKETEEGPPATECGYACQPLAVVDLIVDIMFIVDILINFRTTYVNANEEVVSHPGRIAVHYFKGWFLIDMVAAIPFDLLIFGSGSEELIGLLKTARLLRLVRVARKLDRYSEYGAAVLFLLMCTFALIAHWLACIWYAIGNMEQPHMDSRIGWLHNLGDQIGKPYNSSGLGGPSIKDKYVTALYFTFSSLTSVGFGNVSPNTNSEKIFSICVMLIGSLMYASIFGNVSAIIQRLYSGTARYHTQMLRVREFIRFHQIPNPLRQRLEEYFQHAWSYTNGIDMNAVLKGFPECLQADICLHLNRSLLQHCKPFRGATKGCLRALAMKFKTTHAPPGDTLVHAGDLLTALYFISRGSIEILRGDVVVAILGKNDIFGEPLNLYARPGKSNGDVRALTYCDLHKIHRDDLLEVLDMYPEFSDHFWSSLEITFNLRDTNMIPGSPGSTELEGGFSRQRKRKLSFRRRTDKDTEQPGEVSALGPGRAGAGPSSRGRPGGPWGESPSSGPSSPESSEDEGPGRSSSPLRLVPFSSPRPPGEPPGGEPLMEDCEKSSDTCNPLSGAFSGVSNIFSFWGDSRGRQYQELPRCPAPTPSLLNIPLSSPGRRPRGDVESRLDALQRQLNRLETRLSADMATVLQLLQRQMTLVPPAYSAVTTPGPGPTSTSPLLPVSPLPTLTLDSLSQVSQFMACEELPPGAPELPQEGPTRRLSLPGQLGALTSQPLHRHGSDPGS

[5] = target: T1, Voltage-gated inwardly rectifying potassium channel KCNH2; test: Prolonged QTc interval in anaesthetized dogs after 15min infusion at 30 mg/kg compared to vehicle; conditions: dog, in vivo, iv, 0.25 h
[6] = Relative concentration in DIO mouse brain over serum 2 hr post 20mg/kg peroral dose; format: ADME, organism-based; conditions: po

T1 sequence (Q12809 whole entry): as the sequence (Q12809 whole entry, the tested form may be a part) above
T2 sequence (Q99705 whole entry): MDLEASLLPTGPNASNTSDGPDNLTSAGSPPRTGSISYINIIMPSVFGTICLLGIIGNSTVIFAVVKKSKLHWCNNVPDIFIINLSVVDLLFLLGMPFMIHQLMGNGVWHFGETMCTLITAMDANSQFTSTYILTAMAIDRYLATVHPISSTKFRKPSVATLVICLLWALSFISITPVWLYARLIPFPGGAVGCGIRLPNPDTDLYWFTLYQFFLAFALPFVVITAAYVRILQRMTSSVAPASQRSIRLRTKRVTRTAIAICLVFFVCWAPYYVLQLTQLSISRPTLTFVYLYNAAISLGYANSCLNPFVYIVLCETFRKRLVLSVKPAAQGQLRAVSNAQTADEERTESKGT

| Compound | concentration at 2 h [3] | Ki [4] | IC50 [1] | Weight loss (Mus musculus) | also measured |
| --- | --- | --- | --- | --- | --- |
| CN(C)C(=O)C(CO)N(C)Cc1ccc2c(c1)CC[C@H](N1CCN(CCc3ccc(F)cc3)CC1=O)C2 (stereo partly drawn) |  |  | 25 µM |  |  |
| O=C1CN(CCc2ccc(F)cc2)CCN1[C@H]1CCc2cc(CN3CCOCC3)ccc2C1 |  | 15 µM | 11 µM |  |  |
| O=C1CN(CCc2ccc(F)cc2)CCN1[C@H]1CCc2cc(CNCC(F)(F)F)ccc2C1 |  |  |  |  | inhibition at 10 µM (hERG (KCNH2)): > 50% |
| O=C1CN(CCc2ccc(F)cc2)CCN1[C@H]1CCc2cc(Cn3ccnc3)ccc2C1 |  | 52 µM | 4 µM |  |  |
| CC(=O)N1CCN(Cc2ccc3c(c2)CC[C@H](N2CCN(CCc4ccc(F)cc4)CC2=O)C3)CC1 | 4 µM | 16 µM | 25 µM | <2% | QT interval [5]: Active p<0.05; Kp at 2 h [6]: 0.3 |
| CS(=O)(=O)N1CCN(Cc2ccc3c(c2)CC[C@H](N2CCN(CCc4ccc(F)cc4)CC2=O)C3)CC1 | 9 µM | 30 µM | 13 µM | 3% |  |
| O=C1CN(CCc2ccc(F)cc2)CCN1[C@H]1CCc2cc(CN3CCC(C(F)(F)F)CC3)ccc2C1 |  | 8.7 µM | 2 µM |  |  |
| O=C1CN(CCc2ccc(F)cc2)CCN1[C@H]1CCc2cc(CN3CCS(=O)(=O)CC3)ccc2C1 | 16 µM |  | 24 µM | <2% |  |

Continued, in another order:

| concentration at 2 h [3] | Ki [4] | Compound | IC50 [1] | Weight loss (Mus musculus) | also measured |
| --- | --- | --- | --- | --- | --- |
| 2 µM |  | CCN(CC)Cc1ccc2c(c1)CC[C@H](N1CCN(CCc3ccc(F)cc3)CC1=O)C2 |  | 4% | Ki [2]: 0.015 µM |
|  | 0.047 µM | CCN(CC)Cc1ccc2c(c1)CC[C@H](N1CCN(CCC3CCCS3)CC1=O)C2 (stereo partly drawn) |  |  |  |
|  | 0.032 µM | CCN(CC)Cc1ccc2c(c1)CC[C@H](N1CCN(CCC3CCCCC3)CC1=O)C2 |  |  |  |
|  | 0.0033 µM | CCN(CC)Cc1ccc2c(c1)CC[C@H](N1CCN(CCc3ccc(Cl)cc3)CC1=O)C2 |  |  |  |
|  | 0.093 µM | CCN(CC)Cc1ccc2c(c1)CC[C@H](N1CCN(CCc3cccc(C(F)(F)F)c3)CC1=O)C2 |  |  |  |
